Assay results taken from patent US20050148514A1, “Method and composition for treatment of angiogenesis” (priority 2003, published 2005).
Where no end group is shown, it is not given here.

Experiments:
proMMP-2 = assay: Gelatin zymography of conditioned media of serum-starved HUVEC; type: cell-based, Human; conditions: 300 μg/ml, 24 hours
Method: Zymography. Zymography is a technique generally used to analyze the activity of matrix metalloproteinases (MMPs) in biological samples. It involves the electrophoretic separation of proteins under denaturing (Sodium Dodecyl Sulfate (SDS)) but non-reducing conditions through a polyacrylamide gel containing gelatin (for example, 10% gel containing 1 mg/ml gelatin for MMP-9 and MMP-2 assays). The resolved proteins are re-natured by exchanging SDS with a non-ionic detergent such as Triton X-100 and the gel is incubated in an incubation buffer for activation of MMP-2 and MMP-9 (for example at 37° C. for 18 hrs). The gel is stained with Coomassie blue and the MMP-2 and MMP-9 bands may be visualized as clear bands against a blue background (i.e., the MMPs degrade the gelatin and are visualized as clear bands; pro MMP-2 is 68 kDa and pro-MMP-9 is 92 kDa). These bands can be quantified using densitometry.
Cell culture. Human umbilical vein endothelial cells (HUVEC) and pulmonary aortic smooth muscle cells (PASMC) were obtained from Clonetics and maintained in endothelial cell basal medium-2, (EBM-2; Clonetics) and smooth muscle medium-2 (SmGM-2; Clonetics), respectively. […]
The effect of the PCK3145 derivative (SEQ ID NO.:7) on MMP extracellular levels was assessed by gelatin-zymography in the conditioned media of serum-starved HUVEC. […]

VEGFR-2 = target: T1, VEGFR-2 (Homo sapiens, UniProt P35968); assay: VEGF-induced VEGFR-2 phosphorylation in HUVEC (immunoprecipitation, western blot); type: cell-based
T1 construct: host or cells: HUVEC
Method: (§1) Cell culture. Human umbilical vein endothelial cells (HUVEC) and pulmonary aortic smooth muscle cells (PASMC) were obtained from Clonetics and maintained in endothelial cell basal medium-2, (EBM-2; Clonetics) and smooth muscle medium-2 (SmGM-2; Clonetics), respectively. Cells were cultured at 37° C. under a humidified atmosphere containing 5% CO2. For experimental purposes, cells were plated in 8 100-mm plastic dishes at 5,000 cells/cm^2 and were grown to confluence before overnight serum starvation. Cells were treated with vehicle or with a PCK3145 derivative diluted in 0.1 N NaOH, and stimulated with 50 ng/ml VEGF, PDGF or with 1 μM S1P.
(§2) Immunoprecipitation and immunoblotting procedures. After treatment, cells were washed once with phosphate-buffered saline (PBS) containing 1 mM sodium orthovanadate and were incubated in the same medium for 1 h at 4° C. The cells were solubilized on ice in lysis buffer (150 mM NaCl, 10 mM Tris-HCl, pH 7.4, 1 mM EDTA, 1 mM EGTA, 0.5% Nonidet P-40, 1% Triton X-100) containing 1 mM sodium orthovanadate. The cells were then scraped from the culture dishes and the resulting lysates were clarified by centrifugation at 10,000 g for 10 min. Protein concentrations were determined using the micro bicinchoninic acid method. For immunoprecipitation studies, lysates were clarified by a 1 h incubation at 4° C. with a mixture of Protein A/Protein G Sepharose beads. After removal of the Sepharose beads by low-speed centrifugation, identical amounts of protein (200 μg) from each sample were transferred to fresh tubes and incubated in lysis buffer overnight at 4° C. in the presence of 2 μg/ml of specific antibodies. […]
The multifunctionality of VEGF at the cellular level results from its ability to initiate a diverse, complex and integrated network of signaling pathways via its major receptor, VEGFR-2. […] After each treatment, equal amounts of protein were immunoprecipitated with anti-VEGFR-2 polyclonal antibodies and analysed by Western blotting.

PDGF receptor (PDGFR) = target: T2, PDGF receptor (PDGFR) (Homo sapiens, UniProt P09619); assay: PDGF-induced PDGFR phosphorylation in PASMC; type: cell-based; conditions: treatment as for HUVEC
T2 construct: host or cells: PASMC (pulmonary aortic smooth muscle cells)
Method: as §1
as §2, with “beads.” for “beads. After removal of the Sepharose beads by low-speed centrifugation, identical amounts of protein (200 μg) from each sample were transferred to fresh tubes and incubated in lysis buffer overnight at 4° C. in the presence of 2 μg/ml of specific antibodies.”

NFkB pathway = assay: SEAP gene-reporter assay in U-87 glioma cells, NFkB element; type: cell-based; conditions: alkaline phosphatase activity in extracellular media
Method: (§3) In order to investigate the potential intracellular pathways triggered by the PCK3145 derivative, a gene-reporter assay using the SEAP (Secreted Alkaline Phosphatase) Mercury Profiling Kit (CLONTECH) was performed in glioma cells (U-87). This assay enables the monitoring of transcription factors that are triggered by a particular experimental condition by assaying the alkaline phosphatase activity in the extracellular media. […] The induction of the MAPK pathway by the PCK3145 derivative is further confirmed by the rapid and transient induction of ERK phosphorylation between 5-10 minutes (FIG. 8B) and is shown to be dose-dependent (FIG. 8C). Finally, the effects of the PCK3145 derivative were also compared to those of a scrambled peptide.

[1] = test system: constitutive secretion pathway; assay: SEAP gene-reporter assay in U-87 glioma cells, constitutively expressed SEAP; type: cell-based
Method: as §3

T1 sequence (P35968 20-1356): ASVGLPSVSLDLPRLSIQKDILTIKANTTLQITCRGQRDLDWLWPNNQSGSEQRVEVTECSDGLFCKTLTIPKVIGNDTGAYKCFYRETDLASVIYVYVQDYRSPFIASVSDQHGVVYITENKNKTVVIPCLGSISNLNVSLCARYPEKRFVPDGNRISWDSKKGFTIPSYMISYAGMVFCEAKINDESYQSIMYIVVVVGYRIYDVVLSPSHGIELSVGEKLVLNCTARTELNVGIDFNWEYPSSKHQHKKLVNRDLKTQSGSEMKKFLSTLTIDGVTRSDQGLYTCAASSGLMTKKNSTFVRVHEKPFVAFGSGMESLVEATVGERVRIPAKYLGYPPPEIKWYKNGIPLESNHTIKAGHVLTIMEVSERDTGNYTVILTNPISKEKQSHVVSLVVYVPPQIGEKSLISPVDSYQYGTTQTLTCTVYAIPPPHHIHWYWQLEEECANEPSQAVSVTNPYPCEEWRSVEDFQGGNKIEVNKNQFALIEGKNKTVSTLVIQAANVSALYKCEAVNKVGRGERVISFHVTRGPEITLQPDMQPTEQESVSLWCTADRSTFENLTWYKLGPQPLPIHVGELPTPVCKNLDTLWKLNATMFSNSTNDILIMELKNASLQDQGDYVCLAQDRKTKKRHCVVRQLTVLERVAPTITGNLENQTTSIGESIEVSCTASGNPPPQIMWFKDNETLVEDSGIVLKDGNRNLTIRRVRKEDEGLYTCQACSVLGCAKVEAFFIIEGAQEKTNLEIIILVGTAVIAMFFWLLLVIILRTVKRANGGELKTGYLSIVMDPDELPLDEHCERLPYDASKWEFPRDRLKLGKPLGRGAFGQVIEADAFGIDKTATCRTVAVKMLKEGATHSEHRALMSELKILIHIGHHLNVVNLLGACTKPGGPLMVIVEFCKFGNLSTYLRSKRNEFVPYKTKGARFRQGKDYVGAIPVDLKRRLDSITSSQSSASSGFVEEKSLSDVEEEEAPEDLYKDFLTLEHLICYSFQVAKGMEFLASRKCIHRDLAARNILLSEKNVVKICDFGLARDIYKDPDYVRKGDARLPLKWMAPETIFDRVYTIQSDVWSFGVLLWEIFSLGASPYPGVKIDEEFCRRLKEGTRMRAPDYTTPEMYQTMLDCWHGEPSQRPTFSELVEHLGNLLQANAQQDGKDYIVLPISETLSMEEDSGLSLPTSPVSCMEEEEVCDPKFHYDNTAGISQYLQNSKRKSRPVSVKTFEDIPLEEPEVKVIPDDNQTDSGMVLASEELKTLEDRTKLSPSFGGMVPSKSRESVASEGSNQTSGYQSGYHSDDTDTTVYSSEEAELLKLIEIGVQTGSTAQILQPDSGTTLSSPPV
T2 sequence (P09619 33-1106): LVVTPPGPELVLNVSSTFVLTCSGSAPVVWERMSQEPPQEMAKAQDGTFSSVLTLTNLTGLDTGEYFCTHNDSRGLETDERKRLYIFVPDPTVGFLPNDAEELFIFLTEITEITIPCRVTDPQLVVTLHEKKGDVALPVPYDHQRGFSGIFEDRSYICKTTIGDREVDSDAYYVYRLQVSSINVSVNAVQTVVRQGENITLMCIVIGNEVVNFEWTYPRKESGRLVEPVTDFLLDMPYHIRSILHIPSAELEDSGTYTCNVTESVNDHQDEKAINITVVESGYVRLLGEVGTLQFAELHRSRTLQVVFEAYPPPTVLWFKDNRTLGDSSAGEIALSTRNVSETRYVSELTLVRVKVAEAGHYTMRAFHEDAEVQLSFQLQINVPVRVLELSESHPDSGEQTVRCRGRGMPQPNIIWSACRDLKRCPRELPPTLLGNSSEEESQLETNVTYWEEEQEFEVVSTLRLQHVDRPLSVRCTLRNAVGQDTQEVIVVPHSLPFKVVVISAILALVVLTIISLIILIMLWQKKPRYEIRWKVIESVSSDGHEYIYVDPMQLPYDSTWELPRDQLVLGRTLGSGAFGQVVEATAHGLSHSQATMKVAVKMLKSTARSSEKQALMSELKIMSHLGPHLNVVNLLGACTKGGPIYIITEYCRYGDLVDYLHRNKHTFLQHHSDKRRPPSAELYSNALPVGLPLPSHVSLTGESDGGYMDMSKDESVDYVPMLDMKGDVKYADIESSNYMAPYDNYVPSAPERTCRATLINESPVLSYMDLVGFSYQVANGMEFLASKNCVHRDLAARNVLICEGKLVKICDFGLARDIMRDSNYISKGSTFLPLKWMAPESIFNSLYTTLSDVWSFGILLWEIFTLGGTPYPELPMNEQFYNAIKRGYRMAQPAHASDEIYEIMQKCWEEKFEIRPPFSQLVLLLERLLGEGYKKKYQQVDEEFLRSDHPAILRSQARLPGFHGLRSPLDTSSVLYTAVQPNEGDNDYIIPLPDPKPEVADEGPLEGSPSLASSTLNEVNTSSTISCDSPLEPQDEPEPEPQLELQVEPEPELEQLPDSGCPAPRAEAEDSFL

EWQTDNCETCTCYET (cysteine pairing not given here)
inhibition of VEGF-induced proMMP-2 secretion (proMMP-2): approximately 50%
dose dependence of inhibition of VEGF-induced VEGFR-2 phosphorylation (VEGFR-2; HUVEC): dose-dependent
phosphorylation of VEGFR-2 induced by VEGF (VEGFR-2; serum-starved HUVEC, 300 μg/ml, 24 h): inhibited
PDGFR phosphorylation induced by PDGF (PDGF receptor (PDGFR)): inhibition
SEAP reporter, NFkB pathway (NFkB pathway): triggers significantly
secretion of the constitutively expressed SEAP [1]: inhibited
